Assay: cn = amount concentration of the nth substance listed, in mol/dm3
Conditions: 310.15 K, 101 kPa, Liquid, Taylor dispersion method

[Cl][Cd][Cl] [cadmium chloride] + O
binary diffusion coefficient (c1 = 0): 1.39e-09 m2/s
binary diffusion coefficient (c1 = 0.001): 1.34e-09 m2/s
binary diffusion coefficient (c1 = 0.003): 1.32e-09 m2/s
binary diffusion coefficient (c1 = 0.005): 1.28e-09 m2/s
binary diffusion coefficient (c1 = 0.008): 1.28e-09 m2/s
binary diffusion coefficient (c1 = 0.01): 1.28e-09 m2/s
binary diffusion coefficient (c1 = 0.05): 1.2e-09 m2/s
binary diffusion coefficient (c1 = 0.1): 1.2e-09 m2/s
binary diffusion coefficient (c1 = 0.4): 1.26e-09 m2/s

From the NIST ThermoML archive (doi:10.1016/j.jct.2012.09.011)
